Measurements as given in patent US8906889B2, “C-3 cycloalkenyl triterpenoids with HIV maturation inhibitory activity” (priority 2012, dated 2014).

Test system: recombinant NL4-3 virus (Renilla luciferase, Gag P373S)
Test: HIV cell culture assay (luciferase reporter, MT-2 cells)
Format: cell-based
Settings: Renilla, NL43, MT-2 cells infected for 4-5 days with NLRluc recombinants; luciferase activity
Procedure: MT-2 cells and 293T cells were obtained from the NIH AIDS Research and Reference Reagent Program. MT-2 cells were propagated in RPMI 1640 media supplemented with 10% heat inactivated fetal bovine serum, […]. The 293T cells were propagated in DMEM media supplemented with 10% heat inactivated fetal bovine serum (FBS), 100 units/ml penicillin G and 100 μg/ml streptomycin. The proviral DNA clone of NL4-3 was obtained from the NIH AIDS Research and Reference Reagent Program. A recombinant NL4-3 virus, in which a section of the nef gene from NL4-3 was replaced with the Renilla luciferase gene, was used as a reference virus. In addition, residue Gag P373 was converted to P373S. Briefly, the recombinant virus was prepared by transfection of the altered proviral clone of NL4-3. Transfections were performed in 293T cells using LipofectAMINE PLUS from Invitrogen (Carlsbad, Calif.), according to manufacturer's instruction. The virus was titered in MT-2 cells using luciferase enzyme activity as a marker. Luciferase was quantitated using the Dual Luciferase kit from Promega (Madison, Wis.), with modifications to the manufacturer's protocol. The diluted Passive Lysis solution was pre-mixed with the re-suspended Luciferase Assay Reagent and the re-suspended Stop & Glo Substrate (2:1:1 ratio). Fifty (50) μL of the mixture was added to each aspirated well on assay plates and luciferase activity was measured immediately on a Wallac TriLux (Perkin-Elmer). Antiviral activities of inhibitors toward the recombinant virus were quantified by measuring luciferase activity in cells infected for 4-5 days with NLRluc recombinants in the presence serial dilutions of the inhibitor.

SMILES	EC50 [nM]
C=C(C)[C@@H]1CC[C@]2(NCCN3CCC(S(C)(=O)=O)CC3)CC[C@]3(C)[C@H](CC[C@@H]4[C@@]5(C)CC=C(C6=CCC(C#N)(C(=O)O)CC6)C(C)(C)[C@@H]5CC[C@]43C)[C@@H]12 (mixture of isomers) [Example A6, 1-cyano-4-((1R,3aS,5aR,5bR,7aR,11aS,11bR,13aR,13bR)-5a,5b,8,8,11a-pentamethyl-3a-((2-(4-(methylsulfonyl)piperidin-1-yl)ethyl)amino)-1-(prop-1-en-2-yl)-2,3,3a,4,5,5a,5b,6,7,7a,8,11,11a,11b,12,13,13a,13b-octadecahydro-1H-cyclopenta[a]chrysen-9-yl)cyclohex-3-enecarboxylic acid]	6.18
C=C(C)[C@@H]1CC[C@]2(NCCN3CCC(S(C)(=O)=O)CC3)CC[C@]3(C)[C@H](CC[C@@H]4[C@@]5(C)CC=C(C6=CCC(Cl)(C(=O)O)CC6)C(C)(C)[C@@H]5CC[C@]43C)[C@@H]12 (mixture of isomers) [Example A8, 1-chloro-4-((1R,3aS,5aR,5bR,7aR,11aS,11bR,13aR,13bR)-5a,5b,8,8,11a-pentamethyl-3a-((2-(4-(methylsulfonyl)piperidin-1-yl)ethyl)amino)-1-(prop-1-en-2-yl)-2,3,3a,4,5,5a,5b,6,7,7a,8,11,11a,11b,12,13,13a,13b-octadecahydro-1H-cyclopenta[a]chrysen-9-yl)cyclohex-3-enecarboxylic acid]	2.42
C=C(C)[C@@H]1CC[C@]2(NCCN3CCC(S(C)(=O)=O)CC3)CC[C@]3(C)[C@H](CC[C@@H]4[C@@]5(C)CC=C(C6=CCC(CCO)(C(=O)O)CC6)C(C)(C)[C@@H]5CC[C@]43C)[C@@H]12 (mixture of isomers) [Example A11]	2.65
C=C(C)[C@@H]1CC[C@]2(NCCN3CCC(S(C)(=O)=O)CC3)CC[C@]3(C)[C@H](CC[C@@H]4[C@@]5(C)CC=C(C6=CCC(CO)(C(=O)O)CC6)C(C)(C)[C@@H]5CC[C@]43C)[C@@H]12 (mixture of isomers) [Example A13, 1-(hydroxymethyl)-4-((1R,3aS,5aR,5bR,7aR,11aS,11bR,13aR,13bR)-5a,5b,8,8,11a-pentamethyl-3a-((2-(4-(methylsulfonyl)piperidin-1-yl)ethyl)amino)-1-(prop-1-en-2-yl)-2,3,3a,4,5,5a,5b,6,7,7a,8,11,11a,11b,12,13,13a,13b-octadecahydro-1H-cyclopenta[a]chrysen-9-yl)cyclohex-3-enecarboxylic acid]	0.301
C=C(C)[C@@H]1CC[C@]2(NCCN3CCS(=O)(=O)CC3)CC[C@]3(C)[C@H](CC[C@@H]4[C@@]5(C)CC=C(C6=CC(CC(=O)O)CC6)C(C)(C)[C@@H]5CC[C@]43C)[C@@H]12 (mixture of isomers) [Example A15]	0.547
C=C(C)[C@@H]1CC[C@]2(NCCN3CCS(=O)(=O)CC3)CC[C@]3(C)[C@H](CC[C@@H]4[C@@]5(C)CC=C(C6=CC7C(C6)C7C(=O)O)C(C)(C)[C@@H]5CC[C@]43C)[C@@H]12 (mixture of isomers) [Example A18, 3-((1R,3aS,5aR,5bR,7aR,11aS,11bR,13aR,13bR)-3a-((2-(1,1-dioxidothiomorpholino)ethyl)amino)-5a,5b,8,8,11a-pentamethyl-1-(prop-1-en-2-yl)-2,3,3a,4,5,5a,5b,6,7,7a,8,11,11a,11b,12,13,13a,13b-octadecahydro-1H-cyclopenta[a]chrysen-9-yl)bicyclo[3.1.0]hex-2-ene-6-carboxylic acid]	2.26
